Tests used:
LLC tumor = experiment: Tumor growth inhibition, LLC tumor in mice
Protocol: Tumor cells for implantation were taken from cells either grown in tissue culture (Leydig, M21) or serially passaged as tumors in mice and prepared as tumor brei (LLC, PC-3) by methodology known in the art. Mice were injected subcutaneously in the proximal dorsal midline with 5×10^6 tumor cells and administration of test αvβ3 integrin antagonist compound was initiated the evening of the same day either prior to the chemotherapeutic agent, delayed and on the same day as the chemotherapeutic agent or delayed and following the chemotherapeutic agent. Tumor volumes were measured at intervals over the course of the experiments. Tumors were measured with a vernier caliper and volumes were determined using the formula for the volume of a cylinder: tumor volume=width^2×length×0.52. Blood was routinely drawn, for serum calcium determination and plasma drug concentration, 6 hours post-dosing on day 4 or 5 and again 12 hours post-dosing on the day of sacrifice. On the final day of the experiment, tumors were dissected free and weighed. Calcium concentrations of serum samples were determined calorimetrically using a clinical diagnostic kit. The data are expressed as the mean +/− SEM. Student's and Mann-Whitney tests were used to assess differences between means or medians using the InStat software package.

Rice Leydig tumor cells = experiment: Tumor growth inhibition, Rice Leydig tumor in SCID mice
Protocol: Tumor cells for implantation were taken from cells either grown in tissue culture (Leydig, M21) or serially passaged as tumors in mice and prepared as tumor brei (LLC, PC-3) by methodology known in the art. Mice were injected subcutaneously in the proximal dorsal midline with 5×10^6 tumor cells and administration of test αvβ3 integrin antagonist compound was initiated the evening of the same day either prior to the chemotherapeutic agent, delayed and on the same day as the chemotherapeutic agent or delayed and following the chemotherapeutic agent. Tumor volumes were measured at intervals over the course of the experiments. Tumors were measured with a vernier caliper and volumes were determined using the formula for the volume of a cylinder: tumor volume=width^2×length×0.52. […] On the final day of the experiment, tumors were dissected free and weighed. […] The data are expressed as the mean +/− SEM. Student's and Mann-Whitney tests were used to assess differences between means or medians using the InStat software package.

M21 human melanoma = experiment: Tumor growth inhibition, M21 human melanoma in mice; format: in vivo, SCID mice; conditions: cyclophosphamide 150 mg/kg ip on days 14, 16 and 18
Protocol: In this model, cyclophosphamide was administered (150 mg/kg;ip) on days 14, 16 and 18, and XII (10 mg/kg, BID, PO) was administered continuously after the chemotherapeutic beginning on day 21.

[1] = cisplatin 10 mg/kg ip day 5, XII at 10 mg/kg

Row | Compound | Median survival time (LLC tumor; [1]) | Time to develop a tumor >500 mm^3 (LLC tumor; [1]) | Effect on growth of the LLC tumor (LLC tumor; cisplatin single ip dose 10 mg/kg on day 5, XII 1 and 10 mg/kg, oral, BID from day 1) | Tumor growth inhibition (Rice Leydig tumor cells; cisplatin at maximum tolerated dose, XII 10 mg/kg PO, compared to control-treated mice) | Effect on survival time (Rice Leydig tumor cells; tumor bearing SCID mice) | Inhibition of growth of M21 tumors (M21 human melanoma)
1 | N.N.[Cl][Pt][Cl] [Cisplatin, cisplatin] | 33 days | 22.4 days | significantly retarded | approximately 50% | little effect | –
2 | O=P1(N(CCCl)CCCl)NCCCO1 (stereo not drawn) [Cyclophosphamide, cyclophosphamide] | – | – | – | – | – | significantly inhibited

From patent US6372719B1, “ανβ3 integrin antagonists in combination with chemotherapeutic agents” (priority 1998, dated 2002)
